Entries after “also recorded” stand apart in the source; their conditions may differ.
Key:
Format in all cases: cell-based, human
[1] = test system: endothelial cells (HUVEC); test: Migration of endothelial cells under hypoxia (Chemicon QCM 96-well Migration Assay); conditions: 5 hours hypoxia, 10 ng/ml
Method: FIG. 6 is a graph depicting migration of endothelial cells under hypoxia conditions. Endothelial cells (25,000) were incubated in endothelial cells growth medium free supplements in the migration chamber. ADOPep1 (SEQ ID NO:2), 2 (SEQ ID NO:3) and 3 (SEQ ID NO:4) were added to the feeder tray of the migratory kit at 1, 10 and 100 ng/ml for 5 hours hypoxia. Results were determined by a fluorescence ELISA reader and expressed as increase in percentage migration in Relative fluorescence Units.
FIGS. 26a-b are graphs depicting induction of endothelial cell migration under hypoxia by the ADOPEP motifs. Endothelial cells were incubated for 5 hours under hypoxia conditions in the presence of increasing concentrations of ADOPep1 (red line), peptide motif A (dark blue line), peptide motif B (green line) or peptide motif C (light blue line) and the migration of endothelial cells was detected. FIG. 26a—experiment 1; FIG. 26b—experiment 2.
Endothelial cell migration was evaluated by the Chemicon QCM 96-well Migration Assay (Chemicon International, Calif., USA) according to manufacturer's instructions. This kit utilizes a membrane with an 8 μm pore size. Migratory cells on the bottom of the insert membrane are dissociated from the membrane when incubated with cell detachment buffer provided by the kit. […] For the migration assay, HUVEC from passage 3 were incubated in endothelial cell (EC) growth medium free of supplements. After trypsinization, 25,000 EC were incubated in the migration chamber. ADOPeps were added at concentrations of 1, 10 and 100 ng/ml in the feeder tray for chemoattractant migration assay. Time of incubation was 5 hours for endothelial cells under hypoxic conditions. Results were determined in a Fluorescent ELISA reader at 480/520 nm.

[2] = test system: ERK½; test: ERK½ phosphorylation in endothelial cells under hypoxia (Western blot, densitometry); conditions: for percent adjusted volume of pERK band: FIG. 31, cord 1, 10 ng/ml; for ERK½ phosphorylation (in words): endothelial cells under hypoxia; for ERK½ phosphorylation (in words) / incubation time of maximal ERK phosphorylation (densitometry, data not shown): 10 ng/ml; for incubation time of maximal ERK phosphorylation (densitometry, data not shown): hypoxia
Method: FIGS. 30a-b are Western blot analyses depicting induction of phosphorylation of ERK by ADoPep1 and Motif A. Endothelial cells under starvation conditions and 5 hours hypoxia were incubated for 5 (lanes 2 and 6), 20 (lanes 3 and 7), 30 (lanes 4 and 8) and 60 (lanes 5 and 9) minutes with 10 ng/ml ADoPep1 (Lanes 2-5) or Motif A (lanes 6-9) peptides or remained under hypoxia without a further incubation with a peptide (lane 1). After incubation, lysates were prepared, subject to SDS-PAGE and blotting on a nitrocellulose membrane. Western Blot analysis was performed using anti-Phospho ERK½ antibody. […] FIG. 30a—Experiment 1; FIG. 30b—Experiment 2. The percent adjusted volume as determined by a densitometric analysis software to compare net band densities was as follows: FIG. 30a, lane 1-4.5, lane 2-9.3, lane 3-13.7, lane 4-13.3, lane 5-11.2, lane 6-10.7, lane 7-12.4, lane 8-12.3 and lane 9-12.4; FIG. 30b, lane 1-4.21, lane 2-12.4, lane 3-12.5, lane 4-14.8, lane 5-10.9, lane 6-14.9, lane 7-9.8, lane 8-12.7 and lane 9-7.8.
FIG. 31 is a Western blot analysis depicting the level of phosphorylated ERK (pERK) in endothelial cells activated for 20 minutes with ADOPep1 and motif A and inhibited by pERK-inhibitor peptide. Endothelial cells (from cord 1) under starvation conditions and 5 hours hypoxia were incubated with 10 ng/ml ADOPep1 (lanes 3 and 4) or motif A (lanes 1 and 2) peptides in the presence (lanes 2 and 4) or absence (lanes 1 and 3) of p-ERK-inhibitor peptide (Santa Cruz). For control, the endothelial cells under starvation conditions and 5 hours hypoxia (lane 5) were also incubated with the p-ERK-inhibitor peptide (lane 6). […] The percent adjusted volume as determined by a densitometric analysis software to compare net band densities was as follows: lane 1-19, lane 2-14, lane 3-14, lane 4-8.8, lane 5-11, lane 6-2.1.
FIGS. 32a-b are Western blot analyses depicting the effect of ADOPeps on the level of phosphorylated ERK. Endothelial cells (EC) from cord 1 (FIG. 32a) or cord 2 (FIG. 32b) under hypoxia (5 hours) were incubated for 20 or 30 minutes with 10 ng/ml of AdoPep1, AdoPep2 and AdoPep3 or remained untreated (i.e., under hypoxia without any peptide). Western Blot analyses of samples cell lysates were performed with anti Phospho ERK antibody on nitrocellulose membranes. […] The percent adjusted volume as determined by a densitometric analysis software to compare net band densities was as follows: FIG. 32a, lane 1-11, lane 2-13, lane 3-11, lane 4-5, lane 5-11, lane 6-13, lane 7-17, lane 8-16.7; FIG. 32b, lane 1-17, lane 2-22, lane 3-19, lane 4-7, lane 5-8, lane 6-13, lane 7-14, lane 8-1.

[3] = test system: endothelial cells; test: Tube formation of endothelial cells on Cultrex Basement Membrane Extract; conditions: 10 ng/ml, 18 hours, starvation and normoxic conditions
Method: FIG. 27 is a graph depicting induction of tube formation using AdoPep1 and Motif A (SEQ ID NO:7) but not the scrambled sROY peptide. Endothelial cells were incubated in media without supplements for 24 hours, and 50,000 cells were then transferred in 500 μl medium to 24-well plates precoated with 250 μl Cultrex Basement Membrane Extract (with reduced growth factors) (R&D Systems, Minneapolis, Minn., USA). AdoPep1, Motif A and scrambled sROY peptides were added at an optimal concentration of 10 ng/ml (based on preliminary findings), and the slides were examined by light microscopy after 18 hours incubation. The results represent average±SD of three experiments using 3 different cords. The length of the network of connected cells (tube formation) was measured in micrometers in 5 different areas of each well using Image-Pro Plus Image software (Media Cybernetics, Silver Spring, Md., USA).

[4] = FIG. 30a experiment 1, 10 ng/ml, 5 minutes, hypoxia alone 4.5
[5] = FIG. 30a experiment 1, 10 ng/ml, 20 minutes, hypoxia alone 4.5
[6] = FIG. 30a experiment 1, 10 ng/ml, 30 minutes, hypoxia alone 4.5
[7] = FIG. 30a experiment 1, 10 ng/ml, 60 minutes, hypoxia alone 4.5
[8] = FIG. 30b experiment 2, 10 ng/ml, 5 minutes, hypoxia alone 4.21
[9] = FIG. 30b experiment 2, 10 ng/ml, 20 minutes, hypoxia alone 4.21
[10] = FIG. 30b experiment 2, 10 ng/ml, 30 minutes, hypoxia alone 4.21
[11] = FIG. 30b experiment 2, 10 ng/ml, 60 minutes, hypoxia alone 4.21
[12] = 20 minutes, absence of p-ERK-inhibitor peptide, hypoxia alone 11
[13] = 20 minutes, presence of p-ERK-inhibitor peptide

Substance | migration of endothelial cells [1] | migration of endothelial cells ([1]; listed as ADOPep 1) | percent adjusted volume of phospho ERK½ band [2, 4] [%] | percent adjusted volume of phospho ERK½ band [2, 5] [%] | percent adjusted volume of phospho ERK½ band [2, 6] [%] | percent adjusted volume of phospho ERK½ band [2, 7] [%] | percent adjusted volume of phospho ERK½ band [2, 8] [%] | percent adjusted volume of phospho ERK½ band [2, 9] [%] | percent adjusted volume of phospho ERK½ band [2, 10] [%] | percent adjusted volume of phospho ERK½ band [2, 11] [%] | percent adjusted volume of pERK band [2, 12] [%] | percent adjusted volume of pERK band [2, 13] [%] | percent adjusted volume of phospho ERK band ([2]; FIG. 32a cord 1, 10 ng/ml, 20 minutes, untreated 11, 13) [%] | percent adjusted volume of phospho ERK band ([2]; FIG. 32a cord 1, 10 ng/ml, 30 minutes, untreated 11, 13) [%] | percent adjusted volume of phospho ERK band ([2]; FIG. 32b cord 2, 10 ng/ml, 20 minutes, untreated 17) [%] | percent adjusted volume of phospho ERK band ([2]; FIG. 32b cord 2, 10 ng/ml, 30 minutes, untreated 8) [%] | ERK½ phosphorylation (in words) [2] | ERK½ phosphorylation (in words) ([2]; listed as ADoPep1) | incubation time of maximal ERK phosphorylation (densitometry, data not shown) [2] [min] | tube formation (length of the network of connected cells) [3]
HWRRAHLLPRLP [ADOPep1, ADAM15 derived peptide, amino acids 286-297 of the metalloprotease domain] | most significant increase in EC migration; also recorded: induced endothelial cell migration | induced increase in percent of migration | 9.3 | 13.7 | 13.3 | 11.2 | 12.4 | 12.5 | 14.8 | 10.9 | 14 | 8.8 | 17 | 16.7 | 22 | 13 | significant increase in ERK½ phosphorylation; also recorded: induced ERK½ phosphorylation | induction of ERK½ phosphorylation | 20 | significantly increased the length of the network of connected cells
HWRRP [Motif A, 5 amino acid motif peptide] | induced endothelial cell migration | – | 10.7 | 12.4 | 12.3 | 12.4 | 14.9 | 9.8 | 12.7 | 7.8 | 19 | 14 | – | – | – | – | significant increase in ERK½ phosphorylation; also recorded: induction of ERK½ phosphorylation | – | 20 to 60 | significantly increased the length of the network of connected cells

From patent publication US8741843B2, “Compositions and methods for inducing angiogenesis” (priority 2006, dated 2014)
